The values below are quoted from earlier work in PMC6582641 (Organic & biomolecular chemistry, 2019).

Each structure is given as a SMILES string.

One series concerns TRPC4. As to conditions: read-out: IC50 TRPC4.
Another series deals with TRPC5. Conditions: read-out: IC50 towards TRPC5.

For `Cn1c(=O)n(CCCO)c(=O)c2c1nc(Oc1cccc(Cl)c1)n2Cc1ccc(Cl)cc1` [HC070, 7-(4-Chlorobenzyl)-8-(3-Chlorophenoxy)-1-(3-Hydroxypropyl)-3-Methyl-3,7-Dihydro-1H-Purine-2,6-Dione], in the series with mice, the “anxiolytic and antidepressant effects” value was “produces anxiolytic and antidepressant effects in mice”.
As for `Cn1c(=O)n(CCCO)c(=O)c2c1nc(Oc1cccc(OC(F)(F)F)c1)n2Cc1ccc(Cl)cc1` [HC608, 7-(4-Chlorobenzyl)-1-(3-Hydroxypropyl)-3-Methyl-8-(3-(Trifluoromethoxy)Phenoxy)-3,7-Dihydro-1H-Purine-2,6-Dione], the “binding activity toward TRPC6” value with TRPC6 is recorded as “no binding activities”. Further, in the series on TRPV (vanilloid) 1, the “binding activity toward TRPV1” value is “no binding activities”. The “binding activity toward TRPC3” value in the series with TRPC3 was “no binding activities”. In addition, the “binding activity toward TRPM2” value with TRPM (melastatin) 2 is reported as “no binding activities”. For the same molecule, the IC50 in the series on TRPC4 was 32.5 nM; in the series on TRPC5, 6.2 nM. The “binding activity toward TRPM8” value in the series on TRPM (melastatin) 8 is “no binding activities”. In addition, the “binding activity toward TRPA1” value in the series with TRPA (ankyrin) 1 is listed as “no binding activities”. Also, the “binding activity toward TRPV4” value in the series on TRPV (vanilloid) 4 is “no binding activities”.

As usually defined, the IC50 is the concentration that inhibits the measured activity by half.
